These are literature values, as cited in PMC9847093 (Protein Science : A Publication of the Protein Society, 2023).

For this data set the following is noted: for pKa of monomers used to calculate theoretical number of charges per AOS: M and G monomers; for pKa: ref Draget et al., [1994].

Molecules are shown by their SMILES.

On to `O=C(O)[C@@H]1O[C@@H](O)[C@@H](O)[C@@H](O)[C@@H]1O` [G, α‐L‐guluronate], for which the “pKa of monomers used to calculate theoretical number of charges per AOS” value was 3.65 and the pKa is reported as 3.7.
Turning to `O=C(O)[C@H]1O[C@@H](O)[C@@H](O)[C@@H](O)[C@@H]1O` [M, β‐D‐mannuronate], the “pKa of monomers used to calculate theoretical number of charges per AOS” value is reported as 3.38 and the pKa is 3.4.

Usually pKa stands for the negative logarithm of the acid dissociation constant.
